The results in this text go back to patent US4987140A, “Pyridines” (Roussel Uclaf, priority 1987, dated 1991).

In this assay the test system is chronic-arthritis with adjuvant (increase in volume of the rear paws). Briefly: Anti-inflammatory activity: chronic-arthritis with adjuvant (preventative treatment). It counts as in vivo, rat. Particulars: male rats aged 42 to 50 days, intra-plantar Freund type adjuvant, product orally from day 0 up to the day before killing (day 17), 24480 min. As for the experimental part:
Anti-inflammatory activity: chronic-arthritis with adjuvant (preventative treatment)
In the rat, the injection of Freund type adjuvant in a rear paw causes the rapid appearance of a primary inflammatory lesion in this paw and then, after a latency period of 13 to 15 days, the start up of a secondary arthritic affection, particularly in the other rear paw. The test was carried out on male rats aged 42 to 50 days which received an intra-plantar injection of 0.1 ml of "Freund" type adjuvant (suspension in vaseline oil of 6 mg per ml of killed mycobacterium butyricum). The animals received the product orally from day 0 (day of injection of adjuvant) up to the day before they were killed, which occured on day 17. Control arthritic animals and control normal animals received only the vehicle. The criteria of appreciation of the activity of the substances studied was the increases in volume of the injected rear paws (primary and secondary inflammation) and the non-injected ones (secondary inflammation)by comparison with the average volume of the corresponding paws of normal controls. The DA50 was determined, that is to say, the dose which reduced by 50% the increase in volume of the rear paws of the treated animals in comparison with the control animals.

With `Cc1c(-c2ccccc2)nc(C(F)(F)F)c(C(=O)Nc2nccs2)c1O` [Example 1, 4-hydroxy-5-methyl-6-phenyl-N-(2-thiazolyl)-2-trifluoromethyl-3-pyridine carboxamide], the “DA50 (dose which reduced by 50% the increase in volume of the rear paws of the treated animals in comparison with the control animals)” value was found to be 0.3 mg/k.
With `O=C(Nc1nccs1)c1c(C(F)(F)F)nc(-c2ccccc2)c(-c2ccccc2)c1O` [Example 3, 5,6-diphenyl-4-hydroxy-N-(2-thiazolyl)-2-trifluoromethyl-3-pyridine carboxamide], the “DA50 (dose which reduced by 50% the increase in volume of the rear paws of the treated animals in comparison with the control animals)” value is recorded as 15 mg/k.
